Experiments:
[1] = tested on: exsheathed third-stage larvae (xL3s) of Haemonchus contortus; assay: Primary screen, H. contortus larval development and phenotype (microscopy); conditions: 20 µM, 168 h
Method: An established high-throughput phenotypic screening assay was used to test the anthelmintic activity of compounds on H. contortus xL3s. Compounds were assessed for motility inhibition at a concentration of 20 µM in LB*. […] A solution of LB* + 1% (v/v) DMSO was used as a negative control. Test compounds were distributed amongst one flat-bottom, 384-well microplate (cat no. 3860; Corning, Corning, NY, USA). Eighty xL3s of H. contortus in 20 µl of LB* were added to each well to give a final volume of 40 µl. The plate was then placed in a CO2 incubator (10% [v/v] CO2, 38 °C, > 90% humidity). At 90 h, worm activity was captured using a WMicroTracker ONE unit (Phylumtech, Sunchales, Santa Fe, Argentina). Over a period of 15 min, disturbance of an infrared beam in individual wells was recorded as a worm ‘activity count’. Activity counts were then normalised to the positive and negative controls using the GraphPad Prism program (v.9.1.0 GraphPad Software, San Diego, CA, USA). The screening plate was then returned to the incubator (10% [v/v] CO2, 38 °C, > 90% humidity) for an additional 72 h. At 168 h, worms were fixed with 40 µl of Lugol solution (Sigma-Aldrich, St. Louis, MO, USA). Compounds were then assessed (microscopically) for inhibition of larval development and/or induction of a non-wild-type phenotype in H. contortus worms. […] The performance of the assay was monitored using the Z′-factor [58] calculated using data for the negative (DMSO) and positive (M-666) control compounds on individual plates.

H. contortus larvae = assay: H. contortus dose-response assay, larval development; parameters: species or system Haemonchus contortus; conditions: Haemonchus contortus, 168 h, read-out: IC50, inhibition of H. contortus larval development
Method: The dose–response assay for H. contortus followed a well-established protocol; it was employed to evaluate the potency of hit compounds against this nematode. Test compounds were assessed individually for an effect on the motility of xL3s (10-point, twofold serial dilution in LB*, 40–0.16 μM). One compound, monepantel (prepared in the same manner as the test compounds), was used as a positive control. A solution of LB* was used as a negative control. The test and positive-control compounds were arrayed in triplicate across individual flat-bottom 96-well microplates, with six wells on each plate containing the negative control. Three hundred xL3s of H. contortus in 50 μl of LB* were added to each well to give a final volume of 100 μl. Plates were then placed in a CO2 incubator (10% [v/v] CO2, 38 °C, > 90% humidity). After 168 h of incubation, worm activity was captured using a WMicroTracker ONE unit. Over a period of 15 min, disturbance of an infrared beam in individual wells was recorded as a worm activity count. Raw activity counts for each well were normalised to the negative controls. The compound concentrations were log10-transformed and fitted using a variable-slope four-parameter equation, using the ordinary least squares fit model, employing GraphPad Prism (v.9.1.0). Larval development was established at 168 h of incubation with compound, as described previously. The development inhibition and phenotypes of larvae were examined microscopically. A one-way analysis of variance (ANOVA) with a Tukey multiple comparison test or an unpaired t-test was used to establish statistically significant differences in larval motility or development.

[2] = Cytotoxicity on HepG2 cells (glucose medium, crystal violet); type: cell-based; conditions: human, D-glucose medium, read-out: half-maximal cytotoxic concentration (CC50)
Method: The cytotoxic and mitotoxic activity of MMV1794206 on HepG2 human hepatoma cells was evaluated using an established protocol. The test compounds were serially diluted (seven-point, twofold serial dilution, 40–0.63 µM) in Dulbecco’s modified Eagle medium (DMEM; Thermo Fisher Scientific, USA), with GlutaMax™ supplemented with 25 mM D-glucose (cytotoxicity) or D-galactose (mitotoxicity), 10% heat-inactivated foetal bovine serum (FBS), 100 IU/ml of penicillin, 100 µg/ml of streptomycin and 0.25 µg/ml of amphotericin B (denoted as DMEM*). Monepantel and moxidectin (prepared in the same manner as the test compound) were included as reference compounds. Two compounds, doxorubicin (cytotoxic; Sigma-Aldrich, USA) and M-666 (mitotoxic; [57]), were used as positive controls at a single concentration of 10 µM. A solution of DMEM* + 0.25% (v/v) DMSO was used as a negative control. HepG2 cells were seeded into wells of a 96-well plate in 80 µl of DMEM* (at 1 × 10^5 cells per well) and allowed to adhere for 16 h at 37 °C and 5% (v/v) CO2 at > 90% humidity prior to incubation with individual compounds, at a final volume of 100 µl. […] Following 48 h of incubation with compounds, cell viability was determined by crystal violet staining. The absorbance (595 nm) of treated cells was normalised using the negative controls (viability: 100%) to calculate the cell viability. […]

Q: Which results are given for `CC(F)c1ncnc(NCCc2ccc(OC(F)(F)F)cc2)c1Cl` (centres unmarked) [MMV1794206, flufenerim]?
A: Abnormal phenotype ([1]; H. contortus larvae): Cur; Induction of an abnormal phenotype (in words) ([1]; H. contortus larvae): induced an abnormal phenotype; inhibition at 20 µM ([1]; Haemonchus contortus, H. contortus, read-out: Larval development inhibition, %): 100%; IC50 (H. contortus larvae): 1.2 µM; CC50 at 48 h [2]: < 0.7 µM
